Reference: patent publication US20240287042A1, “NOVEL COMPOUND HAVING INHIBITORY ACTIVITY AGAINST PENDRIN, AND PHARMACEUTICAL USES THEREOF” (UIF (University Industry Foundation), Yonsei University, priority 2021, published 2024)

Target: T1, human wild-type (WT)-SLC26A3 (Homo sapiens, UniProt P40879)
T1 construct: expressed in transfected cells
T1 sequence (P40879 1-764): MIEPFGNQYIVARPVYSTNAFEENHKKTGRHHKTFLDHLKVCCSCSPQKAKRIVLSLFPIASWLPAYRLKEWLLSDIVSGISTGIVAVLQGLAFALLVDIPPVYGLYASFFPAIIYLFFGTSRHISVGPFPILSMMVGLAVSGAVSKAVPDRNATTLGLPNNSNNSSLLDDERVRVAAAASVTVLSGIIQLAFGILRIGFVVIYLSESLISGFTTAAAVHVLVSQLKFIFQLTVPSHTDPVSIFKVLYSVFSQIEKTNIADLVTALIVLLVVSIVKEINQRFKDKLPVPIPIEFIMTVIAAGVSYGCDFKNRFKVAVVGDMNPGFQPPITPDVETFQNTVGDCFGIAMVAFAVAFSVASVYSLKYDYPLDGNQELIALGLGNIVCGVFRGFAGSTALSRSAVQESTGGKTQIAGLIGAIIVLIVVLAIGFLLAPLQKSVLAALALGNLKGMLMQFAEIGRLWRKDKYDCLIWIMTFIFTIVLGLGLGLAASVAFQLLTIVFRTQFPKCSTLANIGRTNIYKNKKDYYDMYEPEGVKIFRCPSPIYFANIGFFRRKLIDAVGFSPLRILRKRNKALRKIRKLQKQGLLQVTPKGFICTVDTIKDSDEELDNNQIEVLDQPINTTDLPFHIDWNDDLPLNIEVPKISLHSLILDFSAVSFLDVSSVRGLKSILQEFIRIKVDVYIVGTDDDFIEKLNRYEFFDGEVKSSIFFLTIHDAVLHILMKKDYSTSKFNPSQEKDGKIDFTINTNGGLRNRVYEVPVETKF
Test: SLC26A3 Cl−/I− exchange activity, YFP fluorescence in LN-215 cells
Format: cell-based
Settings: for IC50: LN-215-YFP cells, FIG. 2, read-out: IC50 of Cl−/I− anion exchange by SLC26A3
Experimental: LN-215 cells were cultured in DMEM medium containing 10% fetal bovine serum (FBS), 100 units/ml of penicillin and 100 μg/ml streptomycin. LN-215 cells were stably transfected with pcDNA3.1 encoding the halide sensor YFP-H148Q/I152L/F46L and human wild-type (WT)-SLC26A3.
LN-215 cells expressing human WT SLC26A3 and YFP-F46L/H148Q/I152L were plated in 96-well microplates at a density of 2×10^4 cells per well, and cultured for 48 hours. Each well of the cell cultured 96-well plate was washed 2 times with 200 μL of PBS, and filled with 50 μL of HEPES buffered solution (140 mM NaCl, 5 mM KCl, 1 mM MgCl2, 1 mM CaCl2), 10 mM glucose and 10 mM HEPES (pH 7.4)). Test compounds (1 μL) were added to a final concentration of 100 μM. After culturing at 37° C. for 10 minutes, the 96-well plate was located on the FLUOstar Omega Microplate Reader (BMG Labtech, Ortenberg, Germany) for a fluorescence assay. Fluorescence was recorded continuously (400 ms per point) for 1 second (baseline), whereby each well was assayed individually for SLC26A3-mediated I-influx. Then, 50 μL of NaI-substituted HEPES buffered solution (replacing NaCl with NaI) was added using a liquid injector at 1 second, and YFP fluorescence was recorded for 5 seconds. The initial iodide influx rate was determined from the initial slope of fluorescence by nonlinear regression, after the injection of iodide.
In the case of SLC26A3 and SLC26A6, each transporter protein and halide sensitive YFP were expressed in LN-215 cells to measure the activity of the transporter protein.
Other details were carried out in the same manner as Example 5.

Selectivity for pendrin than SLC26A3	IC50	SMILES
about 18 times	11.4 µM	Cc1ccc2[nH]c(C(=O)O)c(CC(=O)N3CCN(c4c(C)cccc4Cl)CC3)c2c1 [YPI-A4948, 3-(2-(4-(2-Chloro-6-methylphenyl)piperazin-1-yl)-2-oxoethyl)-5-methyl-1H-indole-2-carboxylic acid]
	3.8 µM	Cc1ccc(C)c(N2CCN(C(=O)Cc3c(C(=O)O)[nH]c4ccc(Cl)cc34)CC2)c1 [YPI-H05, 5-chloro-3-(2-(4-(2,5-dimethylphenyl)piperazin-1-yl-)-2-oxoethyl)-1H-indole-2-carboxylic acid]
